For test [1], the system named is SARG-1 over-expressing PC12 cells. The test is described as follows: Viability of SARG-1 over-expressing PC12 cultures treated with kinase inhibitors. Particulars: staurosporine at 100 nM, in comparison to vector control cultures. In kind it is cell-based, rat. The text has this:
(§1) To examine the expression and function of SARG-1 in a neural cell culture system, standard molecular biology techniques (Sanbrook et al, 1989) were used to clone the rat SARG-1 coding sequence (rSARG-1479) into the pIRESII-EGFP eukaryotic expression vector (Clontech) under the control of a CMV promoter which bicistroni-cally translates through an internal IRES sequence both SARG-1477 and enhanced green fluorescent protein. The rat pheochromocytoma PC12 cell line was maintained in DMEM supplemented with 8% horse serum, 8% fetal calf serum and an antibiotic-antimycotic mix containing 100 units/ml penicillin, 100 μg/ml streptomycin, and 0.25 μg/ml amphotericin B (all from GibcoBRL) in a fully humidified air atmosphere containing 5% CO2 at 37° C. Semi-confluent cultures in 6-well plates were transfected with pIRES2-EGFP-SARG-1 or empty vector for 18 h in the presence of the uptake enhancing cationic lipid mix pFx1 (Invitrogen) at a 6:1 lipid to DNA ratio in serum-free opti-MEN (Gibco). Stable transfectant colonies were picked from separate wells after selection in […] geneticin (Gibco) and clones with similar EGFP fluorescence expanded from independent transfections.
(§2) Over-expression of SARG-1 also enhances terminal differentiation of PC12 cells induced by nerve growth factor (FIG. 14).

For test [2] the test system is unchanged. The test is described as follows: Flow cytometrical cell cycle analysis of transfected PC12 cells. Particulars: 100 nM, 24 h, ethanol fixed cells. It counts as cell-based, rat.
Excerpt: as §2

A further test concerns PC12 cells. The note with it: cited from earlier work.
Test [3] deals with PC12 cells transfected with empty vector. The test is described as follows: Vector control PC12 cultures treated with staurosporine. The note with it: 100 nM. In kind it is cell-based, rat.
Excerpt: as §1, §2

“Also recorded” adds a separate entry of the source.

`COc1cccc(-c2cc(=O)c3ccccc3o2)c1N` [PD 98059]: the “effect on viability / cell death” value in test [1] was “No similar effects”.
The same measure, in the same setting: with `CN(C)CCCn1cc(C2=C(c3c[nH]c4ccccc34)C(=O)NC2=O)c2ccccc21` [Bisindolylmaleimide I] the entry was “No similar effects”.
For `COC(=O)[C@@]1(O)C[C@H]2O[C@]1(C)n1c3ccccc3c3c4c(c5c6ccccc6n2c5c31)C(=O)NC4` [X252a], in test [1], the “effect on viability / cell death” value was “No similar effects”.
On to `CN[C@@H]1C[C@H]2O[C@@](C)([C@@H]1OC)n1c3ccccc3c3c4c(c5c6ccccc6n2c5c31)C(=O)NC4` [staurosporine], for which, in test [2], the “flow cytometry: sub G0/G1 peak / loss of DNA characteristic of apoptosis” value is recorded as “sub G0/G1 peak characteristic for the induction of apoptosis is seen only in SARG-1 over-expressing cells; also recorded: loss of DNA from ethanol fixed cells”. Also, the “effect on viability / cell death” value in test [1] is on record as “rapid loss in viability”. For the same compound, the concentration inducing apoptosis entry with PC12 cells (Fu et al, 1999) is “above 1 mM”. In addition, the “concentration inducing neurite outgrowth” value in the test on PC12 cells (Hashimoto and Hagino, 1989) is 100 nM. For the same compound, the “effect on vector control cultures” value in test [3] was “neurite outgrowth”.

Source of the values: patent US7208270B2, “Method for diagnosing a person having multiple sclerosis” (priority 2001, dated 2007).
